Experimental data published in PMC12810539, “EGFR-targeted gadolinium contrast agents for enhanced molecular magnetic resonance imaging of tumors” (The Journal of Biological Chemistry, 2025).

Experiments:
[1] = In vivo biodistribution: plasma, kidney, liver, heart (ICP-MS); design: species or system SCID mice; conditions: for Gd content in the kidneys / plasma Gd level over time: tumor-bearing SCID mice, ICP-MS; for Gd content in the kidneys: mean ± SD, 6 animals per group; for plasma Gd level over time: 0.25-48 h
Protocol: (§1) The 6- to 8-week-old male non-obese diabetic (NOD)/severe-combined immunodeficient (SCID) mice were used to establish MDA-MB-231 (EGFR-overexpressing) and U138 MG (non-EGFR-overexpressing) xenograft models ([35]). The mice were obtained from the Experimental Animal Center of Tongji Medical College, Huazhong University of Science and Technology, and all the experimental procedures involving animals were further approved by the Animal Care and Use Committee of Huazhong University of Science and Technology. The mice were housed separately in polycarbonate cages and provided with food and water. Tumors were grown under the skin by s.c. injection of 1 × 10^6-3 × 10^6 cells. The mice were randomized into groups for the biodistribution assay and MR imaging in vivo when the xenografts reached 5 to 7 mm in diameter. All procedures were approved by the Institutional Animal Care and Use Committee of Huazhong University of Science and Technology (approval no.270193).
(§2) The tumor-bearing SCID mice were randomly divided into groups, with 6 animals in each group, an injected via the tail vein with 50 μM Gd/kg EBP-Gd-DO3A, EBP-(Gd-DO3A)3, or Gadovist. At the selected time points (0.25, 0.5, 1, 2, 4, 8, 24, and 48 h) after injection, blood was collected and centrifuged to separate the plasma. Then, organ and tissue samples, including the kidneys, liver, heart, and tumor, were collected and weighed. The tissue samples were liquefied for 1 week and then transferred into centrifuge tubes and centrifuged at 14,000 rpm for 5 min. The resulting supernatants were diluted tenfold with deionized water and centrifuged again under the same conditions. The Gd concentration in the samples was measured by ICP-MS ([36]).

[2] = test system: MDA-MB-231 tumor xenografts; assay: In vivo biodistribution: tumor Gd content (ICP-MS); conditions: SCID mice, mean ± SD; for Gd content in the MDA-MB-231 tumor tissues (peak): 4 h after single i.v. 50 μM Gd/kg
Protocol: as §1, §2

[3] = test system: U138 MG tumor xenografts; assay: In vivo biodistribution: tumor Gd content (ICP-MS); conditions: SCID mice, mean ± SD
Protocol: as §1, §2

[4] = test system: MDA-MB-231 and U138 MG tumor xenografts; assay: In vivo MR imaging of tumor xenografts; design: species or system SCID mice; conditions: i.v. 50 μM Gd/kg, 7 T T1-weighted MRI, n = 6; conjugates in MDA-MB-231 xenografts; imaged up to 4 h
Protocol: as §1, with “All procedures were approved by the Institutional Animal Care and Use Committee of Huazhong University of Science and Technology (approval no.270193).” left out
Tumor-bearing SCID mice were randomly grouped and scanned with a Bruker Biospec 7 T MRI scanner (Bruker Corp.) with a volume radio frequency (RF) coil. […] The parameters of the 2D T1-weighted gradient echo sequence were TR/TE = 151.2/1.9 ms, FOV = 3.0 cm, slice thickness = 1.2 mm, slice number = 20, average = 1, flip angle = 80°, and matrix = 128 × 128 ([28], [37]).The CNR were calculated with standard methods (CNR = [Stumor-Sbackground]/SDnoise).

[5] = 0.5 h after single i.v. 50 μM Gd/kg
[6] = 2 h after single i.v. 50 μM Gd/kg
[7] = 24 h after single i.v. 50 μM Gd/kg

Compound | Gd content in the kidneys [1, 5] [nM/g tissue] | Gd content in the kidneys [1, 6] [nM/g tissue] | Gd content in the kidneys [1, 7] [nM/g tissue] | Gd retention in the liver and heart ([1]; single i.v. 50 μM Gd/kg, compared with EBP-Gd-DO3A and EBP-(Gd-DO3A)3, ICP-MS) | plasma Gd level over time ([1]; single i.v. 50 μM Gd/kg) | Gd content in the MDA-MB-231 tumor tissues [2, 5] [nM/g tissue] | Gd content in the MDA-MB-231 tumor tissues [2, 6] [nM/g tissue] | Gd content in the MDA-MB-231 tumor tissues [2, 7] | Gd content in the U138 MG tumors [3, 5] [nM/g tissue] | Gd content in the U138 MG tumors [3, 6] [nM/g tissue] | Gd content in the U138 MG tumors [3, 7] [nM/g tissue] | time that tumor contrast enhancement persisted after injection [4] [h] | Gd content in the kidneys ([1]; 8 h after single i.v. 50 μM Gd/kg) [nM/g tissue] | Gd content in the MDA-MB-231 tumor tissues (peak) [2] [nM/g tissue] | Gd content in the kidneys ([1]; 4 h after single i.v. 50 μM Gd/kg) [nM/g tissue]
O=C([O-])CN1CCN(CC(=O)[O-])CCN([C@H](CO)[C@H](O)CO)CCN(CC(=O)[O-])CC1.[Gd+3] (racemic) [Gadovist, reference compound] | 10.70 ± 2.10 | 8.73 ± 1.37 | 1.58 ± 0.72 | relatively high at all time points | rapidly disappeared from circulation | 3.36 ± 0.91 | 1.26 ± 0.46 | no detectable Gd | 8.70 ± 1.24 | 5.76 ± 0.45 | 0.90 ± 0.23 | 2 |  |  | 
CMYIEALDKYAC [EBP-(Gd-DO3A)3] |  | 12.40 ± 1.60 | 3.50 ± 1.40 |  | maintained at a high level for a much longer time |  |  | 19.42 ± 1.76 nM/g tissue |  |  |  |  | 8.12 ± 1.28 | 30.70 ± 1.90 | 
CMYIEALDKYAC [EBP-Gd-DO3A] |  | 10.76 ± 1.14 | 2.52 ± 0.68 |  | maintained at a high level for a much longer time |  |  | 9.95 ± 1.85 nM/g tissue |  |  |  |  |  | 17.70 ± 2.10 | 8.25 ± 0.75
